18 compounds from patent publication US8680275B2, “Fused heterocyclic compounds as orexin receptor modulators” (Janssen Pharmaceutica NV, priority 2009, dated 2014) can be followed below.

pKi: −log10 of the molar value.

One experiment deals with human orexin-2 receptor (Homo sapiens (Human), UniProt O43614). Description: Human orexin 2 receptor radioligand binding ([3H]-EMPA competition). To be noted: HEK293 cells stably expressing human orexin-2 receptor; [3H]-EMPA 5 nM final; read-out: OR-2 Ki. As for the experimental part: (§1) The in vitro affinity of the compounds for the human orexin-1 and orexin-2 receptors was determined by competitive radioligand binding using [^3H]SB SB674042 (1-(5-(2-fluoro-phenyl)-2-methyl-thiazol-4-yl)-1-((S)-2-(5-phenyl-(1,3,4)oxadiazol-2-ylmethyl)-pyrrolidin-1-yl)methanone) (Langmead et al., British Journal of Pharmacology 2004, 141:340-346.) and [^3H]EMPA (N-ethyl-2[(6-methoxy-pyridin-3-yl)-(toluene-2-sulfonyl)-amino]-N-pyridin-3-ylmethyl acetamide) (Malherbe et al., British Journal of Pharmacology, 2009, 156(8), 1326-1341), respectively.
Human Orexin 2 Receptor Radioligand Binding Studies
HEK293 stably expressing human orexin-2 receptor (Genebank accession number NM_001526) were grown to confluency in DMEM/F12 (Gibco, Cat #11039), in DMEM, 10% FBS, 1× Pen/Strep, 1× NaPyruvate, 1×HEPES, 600 ug/ml G418 media on 150 cm^2 tissue culture plates, washed with 5 mM EDTA in PBS (HyClone Dulbecco's Phosphate Buffered Saline 1× with Calcium and Magnesium, Cat #SH30264.01, hereafter referred to simply as PBS) and scraped into 50 ml tubes. After centrifugation (2K xG, 10 min at 4° C.), the supernatant was aspirated and the pellets frozen and stored at −80° C. Cells were resuspended in PBS in the presence of 1 tablet of protease inhibitor cocktail (Roche, Cat. #11836145001) per 50 mL. […] Competition binding experiments in 96 well polypropylene plates were performed using [^3H]-EMPA (Moravek Corporation, specific activity=27 Ci/mmol), diluted to a […] concentration in PBS (5 nM final concentration). Compounds were solubilized in 100% DMSO (Acros Organics, Cat. #61042-1000) and tested over a range of 7 concentrations (from 0.1 nM to 10 μM). The final concentration of DMSO in the reactions is equal to or less than 0.1%. Total and nonspecific binding was determined in the absence and presence of 10 μM (N-[2-(3,4-dimethoxyphenyl)ethyl]-N-methylnaphthalene-1-carboxamide, CAS Registry #1089563-88-1). The total volume of each reaction is 200 μL (20 μL of diluted compounds, 80 μL of [^3H]-EMPA diluted in PBS and 100 μL of the cell suspension). Reactions were run for 60 min at room temperature and terminated by filtration through GF/C filter plates (PerkinElmer, Cat. #6005174) presoaked in 0.3% polyethylenimine using the cell harvester (Perkin Elmer Filtermate). The plates were washed 3 times by aspirating 30 ml PBS through the plates. Plates were dried in 55° C. oven for 60 min, scintillation fluid was added, and the radioactivity was counted on a Topcount (Packard).

A further experiment deals with human orexin 1 receptor (Homo sapiens (Human), UniProt O43613). Description: Human orexin 1 receptor radioligand binding ([3H]-SB674042 competition). To be noted: CHO cells stably expressing human orexin 1 receptor; [3H]-SB674042 4 nM final; read-out: OR-1 Ki. As for the experimental part: as §1
Human Orexin 1 Receptor Radioligand Binding Studies
Chinese ovary cells (CHO) stably expressing human orexin 1 receptor (Genebank accession number NM_001526) were grown to confluency in DMEM/F12 (Gibco, Cat #11039), 10% FBS, 1× Pen/Strep, 600 μg/mL G418 media on 150 cm^2 tissue culture plates, washed with 5 mM EDTA in PBS (HyClone Dulbecco's Phoshpate Buffered Saline 1× with Calcium and Magnesium, Cat #SH30264.01, hereafter referred to simply as PBS) and scraped into 50 ml tubes. After centrifugation (2K xG, 10 min at 4° C.), the supernatant was aspirated and the pellets frozen and stored at −80° C. Cells were resuspended in PBS in the presence of 1 tablet of protease inhibitor cocktail (Roche, Cat. #11836145001) per 50 mL. […] Compounds were solubilized in 100% DMSO (Acros Organics, Cat. #61042-1000) and tested over a range of 7 concentrations (from 0.1 nM to 10 μM). The final concentration of DMSO in the reactions is equal to or less than 0.1%. Total and nonspecific binding was determined in the absence and presence of 10 μM (1-(6,8-difluoro-2-methylquinolin-4-yl)-3-[4-(dimethylamino)phenyl]urea, CAS Registry #288150-92-5). The total volume of each reaction is 200 μL (20 μL of diluted compounds, 80 μL of [^3H]-SB674042 diluted in PBS and 100 μL of the cell suspension). Reactions were run for 60 min at room temperature and terminated by filtration through GF/C filter plates (PerkinElmer, Cat. #6005174) presoaked in 0.3% polyethylenimine using the cell harvester (PerkinElmer Filtermate). The plates were washed 3 times by aspirating 30 ml PBS through the plates. Plates were dried in 55° C. oven for 60 min, scintillation fluid was added, and the radioactivity was counted on a Topcount (Packard).

human orexin-2 receptor, sequence (O43614 whole entry): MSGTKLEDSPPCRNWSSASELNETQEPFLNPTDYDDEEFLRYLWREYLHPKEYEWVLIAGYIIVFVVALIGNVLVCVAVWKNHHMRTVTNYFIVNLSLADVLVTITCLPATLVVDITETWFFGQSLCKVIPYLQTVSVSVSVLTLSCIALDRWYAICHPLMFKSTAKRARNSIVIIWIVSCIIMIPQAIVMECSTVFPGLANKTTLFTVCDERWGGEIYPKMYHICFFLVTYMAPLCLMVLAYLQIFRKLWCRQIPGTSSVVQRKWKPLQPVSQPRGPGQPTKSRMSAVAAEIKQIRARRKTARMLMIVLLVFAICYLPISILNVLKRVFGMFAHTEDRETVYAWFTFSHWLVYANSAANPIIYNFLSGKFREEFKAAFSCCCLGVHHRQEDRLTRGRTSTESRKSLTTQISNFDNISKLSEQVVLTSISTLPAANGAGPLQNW
human orexin 1 receptor, sequence (O43613 whole entry): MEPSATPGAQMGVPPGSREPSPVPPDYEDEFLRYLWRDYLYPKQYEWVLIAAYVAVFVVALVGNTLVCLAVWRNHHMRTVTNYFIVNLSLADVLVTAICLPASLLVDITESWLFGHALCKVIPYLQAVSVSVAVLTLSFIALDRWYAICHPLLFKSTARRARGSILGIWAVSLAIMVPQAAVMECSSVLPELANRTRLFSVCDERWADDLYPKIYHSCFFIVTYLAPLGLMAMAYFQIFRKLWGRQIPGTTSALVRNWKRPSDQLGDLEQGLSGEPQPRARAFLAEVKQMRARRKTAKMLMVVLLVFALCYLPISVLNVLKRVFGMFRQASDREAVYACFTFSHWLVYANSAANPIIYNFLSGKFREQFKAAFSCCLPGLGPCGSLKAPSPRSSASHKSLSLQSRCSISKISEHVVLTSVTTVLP

For `Cc1cc(C)nc(N2C[C@@H]3CCN(C(=O)c4ncccc4-n4nccn4)C[C@@H]32)n1` [Example 183, (1R,6S)-8-(4,6-Dimethylpyrimidin-2-yl)-3-{[3-(2H-1,2,3-triazol-2-yl)pyridin-2-yl]carbonyl}-3,8-diazabicyclo[4.2.0]octane], the pKi on human orexin-2 receptor was 6.70; on human orexin 1 receptor, 5.00.

On to `Cc1cc(C)nc(N2C[C@@H]3CCN(C(=O)c4nc(C)sc4-c4ccc(F)cc4)C[C@@H]32)n1` [Example 173, (1R,6S)-8-(4,6-Dimethylpyrimidin-2-yl)-3-{[5-(4-fluorophenyl)-2-methyl-1,3-thiazol-4-yl]carbonyl}-3,8-diazabicyclo[4.2.0]octane], for which the pKi is 7.21 on human orexin-2 receptor and 5.67 at human orexin 1 receptor.

In the case of `Cc1ccnc(N2CC3CN(C(=O)c4ccccc4-c4ccccc4)CC32)n1` (stereo not drawn) [Example 61, 3-(Biphenyl-2-ylcarbonyl)-6-(4-methylpyrimidin-2-yl)-3,6-diazabicyclo[3.2.0]heptane], the pKi is 6.01 at human orexin-2 receptor and 5.00 at human orexin 1 receptor.

For the compound `Cc1cc(C)nc(N2C[C@@H]3CCN(C(=O)c4ncccc4Br)C[C@@H]32)n1` [Example 181, (1R,6S)-3-[(3-Bromopyridin-2-yl)carbonyl]-8-(4,6-dimethylpyrimidin-2-yl)-3,8-diazabicyclo[4.2.0]octane], the pKi at human orexin-2 receptor was 5.89; on human orexin 1 receptor, 5.00.

In the case of `O=C(c1ccccc1-c1ccco1)N1CC[C@H]2CN(c3cnc4ccccc4n3)[C@H]2C1` [Example 6, (1R,6S)(2-Furan-2-yl-phenyl)-(8-quinoxalin-2-yl-3,8-diaza-bicyclo[4.2.0]oct-3-yl)-methanone], the pKi at human orexin-2 receptor was 7.70; on human orexin 1 receptor, 7.74.

With `O=C(c1ccccc1-n1nccn1)N1CC[C@H]2CN(c3cnc4ccccc4n3)[C@H]2C1` [Example 39, (1R,6S)-(8-Quinoxalin-2-yl-3,8-diaza-bicyclo[4.2.0]oct-3-yl)-(2-[1,2,3]triazol-2-yl-phenyl)methanone], the pKi was 7.70 at human orexin-2 receptor and 7.49 at human orexin 1 receptor.

On to `CCOc1ccc2ccccc2c1C(=O)N1CC2CN(c3nc(OC)cc(OC)n3)C2C1` (stereo not drawn) [Example 64, 6-(4,6-Dimethoxypyrimidin-2-yl)-3-[(2-ethoxynaphthalen-1-yl)carbonyl]-3,6-diazabicyclo[3.2.0]heptane], for which the pKi at human orexin-2 receptor was 6.96; at human orexin 1 receptor, 6.09.

Regarding `Cc1cc(C)nc(N2C[C@@H]3CCN(C(=O)c4ccccc4-c4ccccc4)C[C@@H]32)n1` [Example 3, (1R,6S)-Biphenyl-2-yl-[8-(4,6-dimethyl-pyrimidin-2-yl)-3,8-diaza-bicyclo[4.2.0]oct-3-yl]-methanone], the pKi at human orexin-2 receptor is 8.10; at human orexin 1 receptor, 6.77.

As for `Cc1cc(N2C[C@@H]3CCN(C(=O)c4c(F)cccc4-n4nccn4)C[C@@H]32)nc(C(F)(F)F)n1` [Example 32, (1R,6S)-(2-Fluoro-6-[1,2,3]triazol-2-yl-phenyl)-[8-(6-methyl-2-trifluoromethyl-pyrimidin-4-yl)-3,8-diaza-bicyclo[4.2.0]oct-3-yl]-methanone], the negative logarithm of the Ki (pKi) was 7.89 on human orexin-2 receptor and 6.87 at human orexin 1 receptor.

`Cc1cccc(N2C[C@@H]3CCN(C(=O)c4ccccc4-n4nccn4)C[C@@H]32)n1` [Example 125, (1R,6S)-8-(6-Methylpyridin-2-yl)-3-{[2-(2H-1,2,3-triazol-2-yl)phenyl]carbonyl}-3,8-diazabicyclo[4.2.0]octane]: the pKi at human orexin-2 receptor was 7.14; at human orexin 1 receptor, 5.48.

Regarding `O=C(c1ccc(F)cc1-n1nccn1)N1CC[C@H]2CN(c3cnc4ccccc4n3)[C@H]2C1` [Example 115, 2-[(1R,6S)-3-{[4-Fluoro-2-(2H-1,2,3-triazol-2-yl)phenyl]carbonyl}-3,8-diazabicyclo[4.2.0]oct-8-yl]quinoxaline], the pKi at human orexin-2 receptor was 7.22; at human orexin 1 receptor, 6.75.

On to `O=C(c1ccccc1-c1ccccc1)N1CCC2CN(c3nccc(-c4ccccc4)n3)C2C1` (stereo not drawn) [Example 9, Biphenyl-2-yl-[8-(4-phenyl-pyrimidin-2-yl)-3,8-diaza-bicyclo[4.2.0]oct-3-yl]-methanone], for which the pKi was 7.48 on human orexin-2 receptor and 7.66 at human orexin 1 receptor.

On to `CN(C)c1nc(N2C[C@@H]3CCN(C(=O)c4ccc(F)cc4-n4nccn4)C[C@@H]32)cc(C(F)(F)F)n1` [Example 38, (1R,6S)-[8-(2-Dimethylamino-6-trifluoromethyl-pyrimidin-4-yl)-3,8-diaza-bicyclo[4.2.0]oct-3-yl]-(4-fluoro-2-[1,2,3]triazol-2-yl-phenyl)-methanone], for which the pKi at human orexin-2 receptor is 7.80; on human orexin 1 receptor it was 7.11.

On to `Cc1ccnc(N2C[C@@H]3CCN(C(=O)c4cc(F)ccc4-n4nccn4)C[C@@H]32)c1` [Example 127, (1R,6S)-3-{[5-Fluoro-2-(2H-1,2,3-triazol-2-yl)phenyl]carbonyl}-8-(4-methylpyridin-2-yl)-3,8-diazabicyclo[4.2.0]octane], for which the results for the pKi at human orexin-2 receptor and at human orexin 1 receptor were 6.68 and 5.00, respectively.

`Cc1cc(N2C[C@@H]3CCN(C(=O)c4ccc(F)cc4-n4nccn4)C[C@@H]32)nc(C(F)(F)F)n1` [Example 34, (1R,6S)-(4-Fluoro-2-[1,2,3]triazol-2-yl-phenyl)-[8-(6-methyl-2-trifluoromethyl-pyrimidin-4-yl)-3,8-diaza-bicyclo[4.2.0]oct-3-yl]-methanone]: the negative logarithm of the Ki (pKi) on human orexin-2 receptor is 7.30; at human orexin 1 receptor, 5.98.

For the compound `Cc1cc(C)nc(N2C[C@@H]3CCN(C(=O)c4c(C)noc4-c4cc(C)on4)C[C@@H]32)n1` [Example 179, 4′-{[(1R,6S)-8-(4,6-Dimethylpyrimidin-2-yl)-3,8-diazabicyclo[4.2.0]oct-3-yl]carbonyl}-3′,5-dimethyl-3,5′-biisoxazole], the values for the pKi at human orexin-2 receptor and on human orexin 1 receptor were 5.96 and 5.00, respectively.

For `Cc1cc(C)nc(N2C[C@@H]3CCN(C(=O)c4cc(C)c(C)nc4-n4nccn4)C[C@@H]32)n1` [Example 157, (1R,6S)-8-(4,6-Dimethylpyrimidin-2-yl)-3-{[5,6-dimethyl-2-(2H-1,2,3-triazol-2-yl)pyridin-3-yl]carbonyl}-3,8-diazabicyclo[4.2.0]octane], the pKi is 6.64 on human orexin-2 receptor and 5.41 on human orexin 1 receptor.

On to `Cc1cc(C)nc(N2C[C@@H]3CCN(C(=O)c4cccc(F)c4-c4ncccn4)C[C@@H]32)n1` [Example 185, (1R,6S)-8-(4,6-Dimethylpyrimidin-2-yl)-3-[(3-fluoro-2-pyrimidin-2-ylphenyl)carbonyl]-3,8-diazabicyclo[4.2.0]octane], for which the pKi was 7.25 on human orexin-2 receptor and 6.22 at human orexin 1 receptor.
